{
  "source": "paper PMC10497828",
  "about": "“A novel peptide derived from vascular endothelial growth factor prevents amyloid beta aggregation and toxicity” (Aging Cell, 2023)",
  "key": {"[1]": {"test_system": "SC-CA1 synapses in WT hippocampal slices", "experiment": "LTP (TBS) in WT hippocampal slices", "assay_type": "cell-based, wild-type mouse", "description": "(§1) Data were expressed as mean ± SEM in ThT, Western blotting, synaptic targeting experiments and electrophysiological recordings (Table S2). Normality and variance homoscedasticity were assessed using descriptive analysis and appropriate tests. Sample size (n) was determined based on previous studies from the literature and pilot experiments; n refers to the number of ELISA, ThT or Western Blotting experiments, to coverslips or culture wells for hippocampal neuron cultures, and to mice per condition or per genotype for electrophysiological experiments. […] For the analysis of Aβ‐BP interaction, K D was determined by fitting the data to a two‐parameter saturation curve. […] For quantitative assessment of Aβ aggregation, Aβ expression level and the percentage of synapses colocalized with Aβ, data were compared for statistical significance between groups using a Kruskal–Wallis and a Dunn's post hoc test with Holm correction (R software) (Table S3). For electrophysiological data, statistical analysis between treatments and/or genotypes were carried out using a Kruskal–Wallis followed by a Dunn's post hoc test to compare differences in fEPSP slopes (Table S3)."}, "[2]": {"test_system": "SC-CA1 synapses in APP/PS1 hippocampal slices", "experiment": "LTP (TBS) in APP/PS1 hippocampal slices", "assay_type": "cell-based, APP/PS1-21 mouse", "description": "as §1"}, "[3]": {"test_system": "SC-CA1 synapses in APP/PS1 hippocampal slices", "experiment": "Paired-pulse facilitation in APP/PS1 hippocampal slices", "assay_type": "cell-based, APP/PS1-21 mouse", "details": "50 ms, after TBS", "experimental": "(§4) Local field potential recordings (LFP) were performed on acute coronal hippocampal slices from 8‐month‐old wild type and transgenic heterozygous male APP/PS1‐21 mice to measure baseline synaptic response and long‐term potentiation (LTP) of Schaffer collaterals to CA1 (SC‐CA1) pyramidal cell synapses. Hippocampal slices (400 μm thick) were cut using a vibratome (Leica VT1200S) and incubated at room temperature in artificial cerebrospinal fluid (ACSF) containing (in mM): 124 NaCl, 10 glucose, 1.25 NaH2PO4, 2.5 KCl, 26 NaHCO3, 1.3 MgCl2, and 2.5 CaCl2, bubbled with 95% O2 and 5% CO2, pH 7.4 for 1 h prior to recording. Field excitatory postsynaptic potentials (fEPSPs) were recorded extracellularly in stratum radiatum of CA1 region of the dorsal hippocampus in presence of gamma‐aminobutyric acid (GABA)‐A receptor antagonist picrotoxin (100 μM). Electrical stimulation was realized with a bipolar tungsten electrode placed in CA1 stratum radiatum and fEPSPs were measured using borosilicate glass microelectrodes (~1–3 MΩ) filled with ACSF. […] LFP were sampled at 10 kHz and fEPSPs initial slope was computed to quantify synaptic responses. […] For quantification, the slope of the synaptic response to the second stimulation was divided by that of the first response."}, "[4]": {"test_system": "Aβ42 oligomerization (monomers, LMW and HMW Aβo)", "experiment": "Western blot (6E10) of soluble Aβ species formed in presence of peptide", "assay_type": "biochemical", "details": "equimolar peptide, 15 μM Aβm, 37°C", "description": "(§2) Synthetic Aβ40, Aβ42, and their biotinylated forms were obtained as lyophilized samples from Bachem (Aβ40, b‐Aβ40, Aβ42 and b‐Aβ42). Briefly, peptides were solubilized in 1,1,1,3,3,3‐hexafluoro‐2‐propanol to prevent oligomerization, then evaporated overnight under a chemical fume hood, and stored as a dried peptide film at −80°C until use, as previously described (Stine et al., [2003]). Aβ monomers (Aβm) were prepared extemporaneously by first dissolving the peptide film in 2 mM dimethyl sulfoxide (DMSO) and vortexing for 1 min. Peptides were further diluted to 100 μM in ice‐cold PBS. Diluted peptides were subsequently sonicated for 20 min at 4°C, centrifuged at 10,000g for 3 min, then the supernatant was collected and concentration of Aβm measured using a micro BCA protein assay kit, prior to being aliquoted and stored at −20°C until use. […]\nAfter a 45 min blocking step in Tris‐buffered saline, 0.1% Tween, pH 7.6, 5% milk, membranes were immunoblotted overnight at 4°C with dedicated antibodies (Table S1) diluted in Tris‐buffered saline, 0.1% Tween, pH 7.6, with 2% milk. […] Proteins were visualized with an ECL detection system and band intensities quantified using a densitometric analysis with ImageJ software."}, "[5]": {"test_system": "VEGFR2 phosphorylation (Tyr1175) in HUVEC", "experiment": "VEGFR2 phosphorylation Western blot in HUVEC", "assay_type": "cell-based, human", "details": "0.5 μM, 5 min", "experimental": "Human um bi l i cal v ei n endothel i al C ell s (HUVEC ) were obtai ned from Pr omocel l and cul tured\nin 6 cm Petri di s hes pre-coated wi th col l ag en I at 5 µ g /cm2 in 20 mM glacial acetic acid. HUVEC\nwere cultured at 7000 cells/cm2 in endothelial cell growth medium MV2 heparin free\n(Promocel l ) s uppl emented wi th 1% P/S unti l reac hi ng 80% c onfl uency , an d were us ed for u p\n0.5 µ M. After treatments, HUVEC were washed a nd i ncubated i n 6 00 mL of l ysi s buf fer (Tri s HCL 25 mM, EDTA 5 mM, DOC 0.5 mM, NP40 1%, SDS 0.1%, NaCl 150 mM), suppl emented with cOmplete protease inhibitor cocktail 2%, Benzonase 0.02%, Orthovanadate 2%, and phos phat as e i nhi bi t ors 2% for 10 mi n at 4°C .\nFor immunoblotting of HUVEC cel l l y s ates , 20 µg of proteins were separated on 3-8% g radi ent SDS-PAGE gels at 120V, with cathode and ano de contai ni ng XT Try ci ne buffe r. G el s w ere transferred on 0.2 µm nitrocellulose membranes at 120V for 2h in 5% methanol, Tris-Glycine buffer and immunoblotted.\nwere used in combination with approp riate secondary antibodies (Table S1)"}, "[6]": {"biological_target": "T1, Aβo-VEGF interaction (recombinant human VEGF165) (Homo sapiens, UniProt P05067)", "T1 construct": "Biotinyl-Amyloid b pr otein ( 1-42); purchased R&D Systems (VEGF165); Bachem (biotinyl-Aβ 1-42) 293-VE (VEGF165); H-5642 (biotinyl-Aβ 1-42)", "T1 sequence (P05067 672-713 limits assumed)": "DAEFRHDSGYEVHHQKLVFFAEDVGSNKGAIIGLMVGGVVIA", "experiment": "Competitive ELISA, Aβo binding to immobilized VEGF165", "assay_type": "biochemical", "description": "Data were expressed as mean ± SEM in ThT, Western blotting, synaptic targeting experiments and electrophysiological recordings (Table S2). Normality and variance homoscedasticity were assessed using descriptive analysis and appropriate tests. Sample size (n) was determined based on previous studies from the literature and pilot experiments; n refers to the number of ELISA, ThT or Western Blotting experiments, to coverslips or culture wells for hippocampal neuron cultures, and to mice per condition or per genotype for electrophysiological experiments. […] For the analysis of Aβ‐BP interaction, K D was determined by fitting the data to a two‐parameter saturation curve. […] For quantitative assessment of Aβ aggregation, Aβ expression level and the percentage of synapses colocalized with Aβ, data were compared for statistical significance between groups using a Kruskal–Wallis and a Dunn's post hoc test with Holm correction (R software) (Table S3). For electrophysiological data, statistical analysis between treatments and/or genotypes were carried out using a Kruskal–Wallis followed by a Dunn's post hoc test to compare differences in fEPSP slopes (Table S3). […]\nCompeti tive ELISA experi ments were performed to anal yse the ability of the BP to impede bi oti nyl ated LMW Aβo bi ndi ng to VEGF. […] After adding the stop solution, absorbance was measured using a TECAN microplate reader."}, "[7]": {"test_system": "Aβ42 monomers (Aβm), fibrillation", "experiment": "Thioflavin T aggregation assay", "assay_type": "biochemical", "details": "increasing concentrations 0.5 to 15 μM, 15 μM Aβm, 24 h", "description": "as §2\nThioflavin‐T (ThT) assays were performed in black polystyrene 384‐well plates using a Tecan microplate reader with a set of excitation/emission wavelengths of 450/490 nm. […] The plate was sealed with a transparent plastic film and incubated at 37°C prior to fluorescence measurement. ThT fluorescence intensity was monitored every 5 min over 24 h at 37°C without agitation. Three replicates per condition were measured.\nData were expressed as mean ± SEM in ThT, Western blotting, synaptic targeting experiments and electrophysiological recordings (Table S2). […]"}, "[8]": {"test_system": "Aβ42 fibrils", "experiment": "Transmission electron microscopy of Aβ aggregates", "assay_type": "biochemical", "description": "Synthetic Aβ40, Aβ42, and their biotinylated forms were obtained as lyophilized samples from Bachem (Aβ40, b‐Aβ40, Aβ42 and b‐Aβ42). Briefly, peptides were solubilized in 1,1,1,3,3,3‐hexafluoro‐2‐propanol to prevent oligomerization, then evaporated overnight under a chemical fume hood, and stored as a dried peptide film at −80°C until use, as previously described (Stine et al., [2003]). Aβ monomers (Aβm) were prepared extemporaneously by first dissolving the peptide film in 2 mM dimethyl sulfoxide (DMSO) and vortexing for 1 min. Peptides were further diluted to 100 μM in ice‐cold PBS. Diluted peptides were subsequently sonicated for 20 min at 4°C, centrifuged at 10,000g for 3 min, then the supernatant was collected and concentration of Aβm measured using a micro BCA protein assay kit, prior to being aliquoted and stored at −20°C until use. […] Aβ preparations were used either directly as monomers (for Aβ40 Elisa assays and ThT experiments) or were subjected to different oligomerization states, enriched in high molecular weight Aβ42 oligomers (HMW Aβo) or in low molecular weight Aβ42 oligomers (LMW Aβo). For Aβ preparations enriched in Aβ fibrils, monomeric Aβ42 peptides (Aβm) were incubated at a concentration of either 30 μM or 15 μM during 24 h at 37°C. For HMW Aβo, Aβm was incubated at 15 μM for 2 h at 37°C. […]"}, "[9]": {"biological_target": "T2, Aβ42 oligomers (LMW Aβo) (Homo sapiens, UniProt P05067)", "T2 construct": "Biotinyl-Amyloid b pr otein ( 1-42); purchased Bachem H-5642; host or cells: chemical synthesis", "T2 sequence (P05067 672-713 limits assumed)": "as above", "experiment": "Indirect ELISA, binding of immobilized BP/CP to biotinylated LMW Aβ42 oligomers", "description": "as §2\n(§3) The binding of CP or BP to synthetic biotinylated LMW Aβo (oligomerized at 4°C for 24 h) or Aβ40 monomers (Aβm) was determined by indirect ELISA in which CP or BP were used as the capture antigens and the biotin tag of the biotinylated Aβ peptides for the detection. […] Absorbance was successively measured at 450 and 540 nm with a TECAN microplate reader and optical density values at 540 nm were subtracted from the ones at 450 nm to correct for optical imperfections of the plate. […]"}, "[10]": {"biological_target": "T3, Aβ40 monomers (Aβm) (Homo sapiens, UniProt P05067)", "T3 construct": "Biotinyl-Amyloid b pr otein ( 1-40); purchased Bachem H-5914; host or cells: chemical synthesis", "T3 sequence (P05067 672-711 limits assumed)": "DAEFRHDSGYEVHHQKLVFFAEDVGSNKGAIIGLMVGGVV", "experiment": "Indirect ELISA, binding of immobilized BP/CP to biotinylated Aβ40 monomers", "details": "Aβm 0 to 10 μg/mL", "description": "as §2, §3"}, "[11]": {"test_system": "hippocampal neuron cultures (Aβo binding to PSD95/Bassoon synapses)", "experiment": "Synaptic targeting in hippocampal neurons by Aβ oligomerized with peptide", "assay_type": "cell-based, C57Bl/6JRj mouse", "details": "Aβ oligomerized 2 h in presence of peptide; 0.5 μM, 30 min", "description": "Primary hippocampal neuron cultures were prepared from E17‐18 C57Bl/6JRj mice. Briefly, hippocampi were removed and collected in Hank's buffered salt solution (HBSS), digested in HBSS supplemented with trypsin (0.25% v/v) for 10 min at 37°C and then rinsed in HBSS and BSA 0.2%. Next, hippocampi were triturated in Neurobasal medium without phenol red, supplemented with L‐glutamine (2 mM), 2% B27, 1% penicillin/streptomycin (P/S) (10,000 U/mL). Hippocampal neurons were then plated onto poly‐L‐lysine coated coverslips (0.5 mg/mL) at a low density (15 × 10^3 cells/cm^2) for synaptic targeting experiments. Neurons were cultured in supplemented Neurobasal medium at 37°C under 5% CO2, one‐half of the medium being changed once a week. […]\nTreated hippocampal neuron cultures were fixed for 4 min in 4% paraformaldehyde (PFA) in 0.1 M phosphate buffer at RT, prior to immunostaining. After a blocking step in non‐permeabilizing condition (PBS, 1% BSA) surface‐bound biotinylated Aβ was detected with fluorescently tagged streptavidin incubated for 3 h at RT. […]\nSubsequent analyses of hippocampal synapse staining were performed by a blinded investigator with Icy software. […] Biotinylated Aβ clusters were quantified in each ROI in collapsed Z‐stacks. […]"}, "[12]": {"test_system": "SC-CA1 synapses in WT hippocampal slices", "experiment": "Paired-pulse facilitation in WT hippocampal slices", "assay_type": "cell-based, wild-type mouse", "details": "50 ms, after TBS", "experimental": "as §4"}, "[13]": {"test_system": "synapses / LTP impaired by Aβo", "details": "ref Martin et al., 2021; cited from earlier work"}, "[14]": {"details": "0.5 μM, at least 40 min before TBS"}},
  "note": "Ends that are not written are not given here.",
  "data": [
    {"substance": "NDYKDDDDKGAAA [CP]", "values": [
      {"measurement": "Effect on LTP in WT slices", "setting": "[1]; [14]", "value": "neither CP nor the BP impacted LTP responses"},
      {"measurement": "LTP amplitude, fEPSP slope 55–60 min after TBS", "setting": "[1]; peptide 0.5 μM at least 40 min before TBS, WT slices, 8-month-old male, mean ± SEM, n = 6 mice", "value": "191.4 ± 18.3", "unit": "%"},
      {"measurement": "Effect on LTP in APP/PS1 slices", "setting": "[2]; [14]", "value": "failed to restore LTP"},
      {"measurement": "LTP amplitude, fEPSP slope 55–60 min after TBS", "setting": "[2]; peptide 0.5 μM at least 40 min before TBS, APP/PS1 slices, 8-month-old male, mean ± SEM, n = 7 mice", "value": "119 ± 9.1", "unit": "%"},
      {"measurement": "Effect on paired-pulse ratio", "setting": "[3]", "value": "no differences were detected"},
      {"measurement": "Effect on proportion of Aβ species", "setting": "[4]", "value": "did not change the proportion of Aβo species"},
      {"measurement": "Effect on basal VEGFR2 phosphorylation", "setting": "[5]", "value": "did not affect basal VEGFR2 phosphorylation level"},
      {"measurement": "Effect on Aβo-VEGF interaction", "setting": "[6]; peptide preincubated with Aβo 2.1 μM", "value": "did not affect Aβo binding"},
      {"measurement": "Effect on ThT fluorescence", "setting": "[7]", "value": "had no impact on ThT fluorescence"},
      {"measurement": "Morphology of Aβ aggregates by TEM", "setting": "[8]; Aβ 30 μM + equimolar peptide, 24 h at 37°C, n = 4", "value": "typical fibrillary structures"},
      {"measurement": "Structures formed by peptide alone, TEM", "setting": "[8]; peptide alone, no Aβ", "value": "do not show any detectable 3D structures"},
      {"measurement": "Binding of Aβo to immobilized peptide", "setting": "[9]; ELISA, Aβo 0 to 10 μg/mL", "value": "failed to bind to the CP even at the highest concentration"},
      {"measurement": "Binding of Aβm to immobilized peptide", "setting": "[10]", "value": "failed to bind to the CP even at the highest concentration"},
      {"measurement": "Aβo binding to neuron surface and synapses", "setting": "[11]", "value": "strong binding to hippocampal neuron surface"},
      {"measurement": "Effect on paired-pulse ratio", "setting": "[12]", "value": "no differences were detected"}
    ]},
    {"substance": "VEGF", "values": [
      {"measurement": "Protection of synapses / LTP from Aβo", "setting": "[13]", "value": "ability to preserve synapses from dysfunction and LTP deficits caused by Aβo"}
    ]},
    {"substance": "KRKKSRYKSWSVYVG [BP]", "values": [
      {"measurement": "EC50", "setting": "[6]; Aβo 2.1 μM preincubated with BP 1 h RT, three-parameter sigmoidal fit, n = 5-6", "value": 350, "unit": "nM"},
      {"measurement": "Kd", "setting": "[9]", "value": 12, "unit": "nM"}
    ]}
  ]
}
